In brackets after ≈: the same amount, converted by molar mass. Where two headings read alike, the source gives them in different places.
Legend:
BVDV-1 (strain PE515) = assay: Anti-BVDV assay, virus-induced cytopathic effect in MDBK cells (MTS); type: cell-based, Bovine Viral Diarrhea Virus; conditions: Bovine viral diarrhea virus isolates and strains
Experimental: Madin-Darbey Bovine Kidney (MDBK) cells were maintained in Dulbecco's modified Eagle medium (DMEM) supplemented with BVDV-free 5% fetal calf serum (DMEME-FCS) at 37° C. in a humidified, 5% CO2 atmosphere. BVDV-1 (strain PE515) was used to assess the antiviral activity in MDBK cells. Vero cells were maintained in the same way as MDBK cells. Vero cells were infected with Coxsackie B3 virus (strain Nancy).
Ninety-six-well cell culture plates were seeded with MDBK cells in DMEM-FCS so that cells reached 24 hr later confluency. Then medium was removed and serial 5-fold dilutions of the test compounds were added in a total volume of 100 ul, after which the virus inoculum (100 ul) was added to each well. […] Uninfected cells and cells receiving virus without compound were included in each assay plate. After 5 days, medium was removed and 90 μl of DMEM-FCS and 10 ul of MTS/PMS solution (Promega) was added to each well. Following a 2 hr incubation period at 37° C. the optical density of the wells was read at 498 nm in a microplate reader.

[1] = Cytostatic effect on exponentially growing MDBK cells (MTS); type: cell-based, Bovine; conditions: bovine; Table 9; reduction of growth of exponentially growing MDBK cells by 50%; mean of 2-5 determinations
Experimental: Madin-Darbey Bovine Kidney (MDBK) cells were maintained in Dulbecco's modified Eagle medium (DMEM) supplemented with BVDV-free 5% fetal calf serum ([…]) at 37° C. in a humidified, 5% CO2 atmosphere. […] Vero cells were maintained in the same way as MDBK cells. […] The effect of the drugs on exponentially growing MDBK cells was assessed as follows. Cells were seeded at a density of 5000 cell/well in 96 well plates in MEM medium (Gibco) supplemented with 10% fetal calf serum, 2 mM L-glutamine (Life Technologies) and bicarbonate (Life Technologies). […] Cultures were then again further incubated for 3 days after which the effect on cell growth was quantified by means of the MTS method (Promega).

[2] = Table 9, reduction of virus induced cytopathic effect in MDBK cells by 50%, BVDV strain PE515, mean of 2-5 determinations, read-out: EC50

SMILES | EC50 (BVDV-1 (strain PE515); [2]) [mg/L] | CC50 at 3 days [1] [mg/L] | EC50 (BVDV-1 (strain PE515); MDBK) [mg/L]
Fc1ccc(Cn2ccc3nc(-c4cc(F)ccc4F)nc-3c2)c(F)c1 [GPC-13, 2-(2,5-Difluorophenyl)-5-[(2,4-difluorophenyl)methyl]-5H-imidazo[4,5-c]pyridine] | 0.067 (≈ 0.188 µM) | > 100 | –
Fc1cccc(F)c1-c1nc2ccn(Cc3ccccc3)cc-2n1 [GPJN-1, 5-Benzyl-2-(2,6-difluorophenyl)-5H-imidazo[4,5-c]pyridine] | 0.24 (≈ 0.747 µM) | > 83.3 | –
Fc1cccc(F)c1Cn1ccc2nc(-c3ccccc3)nc-2c1 [GPJN-3, 5-[(2,6-Difluorophenyl)methyl]-2-phenyl-5H-imidazo[4,5-c]pyridine] | 0.06 (≈ 0.187 µM) | 60 (≈ 187 µM) | –
c1ccc(Cn2ccc3nc(-c4ccccc4)nc-3c2)cc1 [GPJN-4, 5-Benzyl-2-phenyl-5H-imidazo[4,5-c]pyridine] | 0.04 (≈ 0.14 µM) | 46 (≈ 161 µM) | –
Clc1ccccc1Cn1ccc2nc(-c3ccccc3)nc-2c1 [GPJN-7, 5-[(2-Chlorophenyl)methyl]-2-phenyl-5H-imidazo[4,5-c]pyridine] | 0.042 (≈ 0.131 µM) | 22 (≈ 68.8 µM) | –
Clc1cccc(Cn2ccc3nc(-c4ccccc4)nc-3c2)c1 [GPJN-8, 5-[(3-Chlorophenyl)methyl]-2-phenyl-5H-imidazo[4,5-c]pyridine] | 0.086 (≈ 0.269 µM) | 51 (≈ 159 µM) | –
Cl.Clc1ccc(Cn2ccc3nc(-c4ccccc4)nc-3c2)cc1 [GPJN-9 xHCl, 5-[(4-Chlorophenyl)methyl]-2-phenyl-5H-imidazo[4,5-c]pyridine hydrochloride] | 0.016 | – | –
Clc1ccc(Cn2ccc3nc(-c4ccccc4)nc-3c2)cc1 [GPJN-9, 5-[(4-Chlorophenyl)methyl]-2-phenyl-5H-imidazo[4,5-c]pyridine] | 0.049 (≈ 0.153 µM) | – | –
COc1ccccc1Cn1ccc2nc(-c3ccccc3)nc-2c1 [GPJN-11, 5-[(2-Methoxyphenyl)methyl]-2-phenyl-5H-imidazo[4,5-c]pyridine] | 0.032 (≈ 0.101 µM) | 36 (≈ 114 µM) | –
COc1cccc(Cn2ccc3nc(-c4ccccc4)nc-3c2)c1 [GPJN-12, 5-[(3-Methoxyphenyl)methyl]-2-phenyl-5H-imidazo[4,5-c]pyridine] | 0.059 (≈ 0.187 µM) | 56 (≈ 178 µM) | –
COc1ccc(Cn2ccc3nc(-c4ccccc4)nc-3c2)cc1 [GPJN-13, 5-[(4-Methoxyphenyl)methyl]-2-phenyl-5H-imidazo[4,5-c]pyridine] | 0.043 (≈ 0.136 µM) | 45 (≈ 143 µM) | –
c1ccc(CCCn2ccc3nc(-c4ccccc4)nc-3c2)cc1 [GPJN-14, 2-Phenyl-5-(3-phenylpropyl)-5H-imidazo[4,5-c]pyridine] | 0.07 (≈ 0.223 µM) | 40 (≈ 128 µM) | –
Cc1ccc(Cn2ccc3nc(-c4ccccc4)nc-3c2)cc1 [GPJN-15, 5-[(4-Methylphenyl)methyl]-2-phenyl-5H-imidazo[4,5-c]pyridine] | 0.009 (≈ 0.0301 µM) | 29 (≈ 96.9 µM) | –
Fc1ccccc1Cn1ccc2nc(-c3ccccc3)nc-2c1 [GPJN-17, 5-[(2-Fluorophenyl)methyl]-2-phenyl-5H-imidazo[4,5-c]pyridine] | 0.097 (≈ 0.32 µM) | 50 (≈ 165 µM) | –
Fc1cccc(Cn2ccc3nc(-c4ccccc4)nc-3c2)c1 [GPJN-18, 5-[(3-Fluorophenyl)methyl]-2-phenyl-5H-imidazo[4,5-c]pyridine] | 0.019 (≈ 0.0626 µM) | 55 (≈ 181 µM) | –
Fc1ccc(Cn2ccc3nc(-c4ccccc4)nc-3c2)cc1 [GPJN-19, 5-[(4-Fluorophenyl)methyl]-2-phenyl-5H-imidazo[4,5-c]pyridine] | 0.013 (≈ 0.0429 µM) | 40 (≈ 132 µM) | –
Cc1ccccc1Cn1ccc2nc(-c3ccccc3)nc-2c1 [GPJN-20, 5-[(2-Methylphenyl)methyl]-2-phenyl-5H-imidazo[4,5-c]pyridine] | 0.165 (≈ 0.551 µM) | 28 (≈ 93.5 µM) | –
Cc1cccc(Cn2ccc3nc(-c4ccccc4)nc-3c2)c1 [GPJN-21, 5-[(3-Methylphenyl)methyl]-2-phenyl-5H-imidazo[4,5-c]pyridine] | 0.022 (≈ 0.0735 µM) | 22 (≈ 73.5 µM) | –
Brc1ccc(Cn2ccc3nc(-c4ccccc4)nc-3c2)cc1 [GPJN-22, 5-[(4-Bromophenyl)methyl]-2-phenyl-5H-imidazo[4,5-c]pyridine] | 0.029 (≈ 0.0796 µM) | 13 (≈ 35.7 µM) | –
N#Cc1ccc(Cn2ccc3nc(-c4ccccc4)nc-3c2)cc1 [GPJN-23, 4-[(2-Phenyl-5H-imidazo[4,5-c]pyridin-5-yl)methyl]-benzonitrile] | 0.014 (≈ 0.0451 µM) | 46 (≈ 148 µM) | –

SMILES | EC50 (BVDV-1 (strain PE515); [2]) [mg/L] | CC50 at 3 days [1] [mg/L] | EC50 (BVDV-1 (strain PE515); MDBK) [mg/L]
FC(F)(F)c1ccc(Cn2ccc3nc(-c4ccccc4)nc-3c2)cc1 [GPJN-24, 2-Phenyl-5-[[4-(trifluoromethyl)phenyl]methyl]-5H-imidazo[4,5-c]pyridine] | 0.04 (≈ 0.113 µM) | 21 (≈ 59.4 µM) | –
Clc1ccc(Cn2ccc3nc(-c4ccccc4)nc-3c2)s1 [GPJN-25, 5-[(5-Chloro-2-thienyl)methyl]-2-phenyl-5H-imidazo[4,5-c]pyridine] | 0.009 (≈ 0.0276 µM) | 36 (≈ 110 µM) | –
c1ccc(-c2nc3ccn(Cc4ccc5ccccc5c4)cc-3n2)cc1 [GPJN-26, 5-(2-Naphthalenylmethyl)-2-phenyl-5H-imidazo[4,5-c]pyridine] | 0.041 (≈ 0.122 µM) | > 100 | –
c1ccc(CCCCn2ccc3nc(-c4ccccc4)nc-3c2)cc1 [GPJN-27, 2-Phenyl-5-(4-phenylbutyl)-5H-imidazo[4,5-c]pyridine] | 0.945 (≈ 2.89 µM) | > 46 | –
CC(C)=CCn1ccc2nc(-c3ccccc3)nc-2c1 [GPJN-28, 5-(3-Methyl-2-butenyl)-2-phenyl-5H-imidazo[4,5-c]pyridine] | 0.325 (≈ 1.23 µM) | > 75 | –
c1ccc(-c2nc3ccn(Cc4ccncc4)cc-3n2)cc1 [GPJN-31, 2-Phenyl-5-(4-pyridinylmethyl)-5H-imidazo[4,5-c]pyridine] | 0.455 (≈ 1.59 µM) | > 100 | –
CC(c1ccccc1)n1ccc2nc(-c3ccccc3)nc-2c1 (stereo not drawn) [GPJN-33, 2-Phenyl-5-(1-phenylethyl)-5H-imidazo[4,5-c]pyridine] | 0.2 (≈ 0.668 µM) | 70 (≈ 234 µM) | –
c1ccc(-c2nc3ccn(Cc4ccccn4)cc-3n2)cc1 [GPJN-34, 2-Phenyl-5-(2-pyridinylmethyl)-5H-imidazo[4,5-c]pyridine] | 0.865 (≈ 3.02 µM) | > 100 | –
c1ccc(-c2nc3ccn(Cc4cccnc4)cc-3n2)cc1 [GPJN-35, 2-Phenyl-5-(3-pyridinylmethyl)-5H-imidazo[4,5-c]pyridine] | 0.365 (≈ 1.27 µM) | > 100 | –
c1ccc(-c2nc3ccn(CC4CCCCC4)cc-3n2)cc1 [GPJN-37, 5-(Cyclohexylmethyl)-2-phenyl-5H-imidazo[4,5-c]pyridine] | 0.161 (≈ 0.553 µM) | 22 (≈ 75.5 µM) | –
CC(C)CCn1ccc2nc(-c3ccccc3)nc-2c1 [GPJN-38, 5-(3-Methylbutyl)-2-phenyl-5H-imidazo[4,5-c]pyridine] | 0.235 (≈ 0.886 µM) | 50 (≈ 188 µM) | –
Fc1ccc(Cn2ccc3nc(-c4c(F)cccc4F)nc-3c2)cc1 [GPJN-39, 2-(2,6-Difluorophenyl)-5-[(4-fluorophenyl)methyl]-5H-imidazo[4,5-c]pyridine] | 0.245 (≈ 0.722 µM) | > 100 | –
Fc1cc(F)c(Cn2ccc3nc(-c4c(F)cccc4F)nc-3c2)c(F)c1 [GPJN-41, 2-(2,6-Difluorophenyl)-5-[(2,4,6-trifluorophenyl)methyl]-5H-imidazo[4,5-c]pyridine] | 0.58 (≈ 1.55 µM) | > 100 | –
CCc1nc2ccn(Cc3ccc(Br)cc3)cc-2n1 [GPJN-48, 5-[(4-Bromophenyl)methyl]-2-ethyl-5H-imidazo[4,5-c]pyridine] | 0.351 (≈ 1.11 µM) | > 100 | –
Brc1ccc(Cn2ccc3nc(-c4ccncc4)nc-3c2)cc1 [GPJN-49, 5-[(4-Bromophenyl)methyl]-2-(4-pyridinyl)-5H-imidazo[4,5-c]pyridine] | 0.18 (≈ 0.493 µM) | 62 (≈ 170 µM) | –
Brc1ccc(Cn2ccc3nc(-c4cccs4)nc-3c2)cc1 [GPJN-53, 5-[(4-Bromophenyl)methyl]-2-(2-thienyl)-5H-imidazo[4,5-c]pyridine] | 0.033 (≈ 0.0891 µM) | 66 (≈ 178 µM) | –
Clc1ccccc1-c1nc2ccn(Cc3ccc(Br)cc3)cc-2n1 [GPJN-54, 5-[(4-Bromophenyl)methyl]-2-(2-chlorophenyl)-5H-imidazo[4,5-c]pyridine] | 0.1 (≈ 0.251 µM) | 35 (≈ 87.8 µM) | –
Clc1cccc(-c2nc3ccn(Cc4ccc(Br)cc4)cc-3n2)c1 [GPJN-55, 5-[(4-Bromophenyl)methyl]-2-(3-chlorophenyl)-5H-imidazo[4,5-c]pyridine] | 0.06 (≈ 0.15 µM) | > 100 | –
Brc1ccc(Cn2ccc3nc(-c4ccc5ccccc5c4)nc-3c2)cc1 [GPJN-63, 5-[(4-Bromophenyl)methyl]-2-(2-naphthalenyl)-5H-imidazo[4,5-c]pyridine] | 0.0042 (≈ 0.0101 µM) | 4.3 (≈ 10.4 µM) | –
Brc1ccc(Cn2ccc3nc(-c4cccc(Br)c4)nc-3c2)cc1 [GPJN-65, 2-(3-Bromophenyl)-5-[(4-bromophenyl)methyl]-5H-imidazo[4,5-c]pyridine] | – | > 100 | 0.01 (≈ 0.0226 µM)

From patent US8779141B2, “Viral inhibitors” (Gilead Sciences, Inc., priority 2002, dated 2014)
